In ChEMBL document CHEMBL1201862, “PubChem BioAssay data set” (2004):
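Five compound concentrations were applied to cells in 96-well plates for 48 hours; endpoints were derived by simple linear interpolation of the resulting dose-response curve. GI50 = concentration required for 50% inhibition of growth.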 Calls of active or inactive are those of the source. No stated cut-off is given here; in the data, active = GI50 up to about 1.1 µM and inactive = higher.

What was measured:
Assay in all cases: inhibition of tumour cell growth, NCI panel, 48 h
NCI-H23 = test system: NCI-H23
TK-10 = test system: TK-10
IGROV-1 = test system: IGROV-1
KM12 = test system: KM12
UACC-62 = test system: UACC-62
OVCAR-4 = test system: OVCAR-4
CCRF-CEM = test system: CCRF-CEM
SK-OV-3 = test system: SK-OV-3
LOX IMVI = test system: LOX IMVI
SK-MEL-28 = test system: SK-MEL-28
SR = test system: SR
UACC-257 = test system: UACC-257
NCI-H522 = test system: NCI-H522
NCI-H226 = test system: NCI-H226
OVCAR-5 = test system: OVCAR-5
SF-295 = test system: SF-295
HCT-116 = test system: HCT-116
NCI-H460 = test system: NCI-H460
EKVX = test system: EKVX
MDA-N = test system: MDA-N

Compound | GI50 (NCI-H23) | GI50 (TK-10) | GI50 (IGROV-1) | GI50 (KM12) | GI50 (UACC-62) | GI50 (OVCAR-4) | GI50 (CCRF-CEM) | GI50 (SK-OV-3) | GI50 (LOX IMVI) | GI50 (SK-MEL-28) | GI50 (SR) | GI50 (UACC-257) | GI50 (NCI-H522) | GI50 (NCI-H226) | GI50 (OVCAR-5) | GI50 (SF-295) | GI50 (HCT-116) | GI50 (NCI-H460) | GI50 (EKVX) | GI50 (MDA-N)
CN(CCCN(C)Cc1ccc(Cl)c(Cl)c1)CCN1CCCC1 | 26.5 µM (inactive) | 24.2 µM (inactive) | 27.7 µM (inactive) | 30.7 µM (inactive) | 1.85 µM (inactive) | 66.7 µM (inactive) | 7.11 µM (inactive) | 75.3 µM (inactive) | 14.4 µM (inactive) | 1.93 µM (inactive) | 8.45 µM (inactive) | 2.62 µM (inactive) | 16 µM (inactive) | 21.2 µM (inactive) | 28.7 µM (inactive) | 21.7 µM (inactive) | 12 µM (inactive) | 16.9 µM (inactive) | 36.3 µM (inactive) | 4.32 µM (inactive)
O=C1/C(=C\c2ccc(Cl)cc2Cl)Sc2scc(-c3cccc([N+](=O)[O-])c3)[n+]21 | 12.6 µM (inactive) | 4.07 µM (inactive) | 6.31 µM (inactive) | 11.6 µM (inactive) | 8.65 µM (inactive) | 12 µM (inactive) | 0.291 µM (active) | 41 µM (inactive) | 1.55 µM (inactive) | 14.6 µM (inactive) | 2.58 µM (inactive) | 5.79 µM (inactive) | 1.43 µM (inactive) | 13.5 µM (inactive) | 15.5 µM (inactive) | 24.9 µM (inactive) | 5.2 µM (inactive) | 13.1 µM (inactive) | 7.57 µM (inactive) | 4.28 µM (inactive)
CCOC(=O)c1c(SC(=O)c2ccc(C(C)(C)C)cc2)n(-c2ccccc2)c(=S)n(-c2ccccc2)c1=O | > 100 µM (inactive) | > 100 µM (inactive) | > 100 µM (inactive) | > 100 µM (inactive) | > 100 µM (inactive) | > 100 µM (inactive) | 29.7 µM (inactive) | > 100 µM (inactive) | > 100 µM (inactive) | > 100 µM (inactive) | > 100 µM (inactive) | > 100 µM (inactive) | > 100 µM (inactive) | > 100 µM (inactive) | > 100 µM (inactive) | > 100 µM (inactive) | > 100 µM (inactive) | > 100 µM (inactive) | > 100 µM (inactive) | > 100 µM (inactive)
COc1ccc(C2C(=O)c3c(OC)cc(OC)cc3OC2c2cccnc2)cc1 (centres undefined) | > 100 µM (inactive) | > 100 µM (inactive) | > 100 µM (inactive) | > 100 µM (inactive) | 82.2 µM (inactive) | 44.2 µM (inactive) | 66.2 µM (inactive) | > 100 µM (inactive) | 61.2 µM (inactive) | > 100 µM (inactive) | 37.6 µM (inactive) | > 100 µM (inactive) | 35.8 µM (inactive) | 43.8 µM (inactive) | > 100 µM (inactive) | 53.5 µM (inactive) | > 100 µM (inactive) | 92.7 µM (inactive) | > 100 µM (inactive) | 46.7 µM (inactive)
O=C(Oc1cccc2cccnc12)c1cc2cc(CCl)ccc2oc1=O | 8.39 µM (inactive) | 25.5 µM (inactive) | 24.4 µM (inactive) | 24 µM (inactive) | 8.57 µM (inactive) | 25.6 µM (inactive) | 0.277 µM (active) | > 100 µM (inactive) | 25.3 µM (inactive) | 30.1 µM (inactive) | 4.27 µM (inactive) | 6.05 µM (inactive) | 2.18 µM (inactive) | 75.9 µM (inactive) | 31.5 µM (inactive) | 37.4 µM (inactive) | 3.4 µM (inactive) | 10.9 µM (inactive) | 2.4 µM (inactive) | 16.1 µM (inactive)
CC(=O)C1=CC=C/C1=N\Nc1ccccc1 | 9.06 µM (inactive) | 7.14 µM (inactive) | 7.4 µM (inactive) | 4.38 µM (inactive) | 6.97 µM (inactive) | 5.71 µM (inactive) | 2.94 µM (inactive) | 16.6 µM (inactive) | 2.84 µM (inactive) | 14 µM (inactive) | 0.543 µM (active) | 15.5 µM (inactive) | 4.71 µM (inactive) | 17.3 µM (inactive) | 7 µM (inactive) | 11.8 µM (inactive) | 4.99 µM (inactive) | 11.6 µM (inactive) | 5.6 µM (inactive) | 6.22 µM (inactive)
COc1cc(C(CN)N(C)C)cc(OC)c1OC (centres undefined) | > 100 µM (inactive) | > 100 µM (inactive) | > 100 µM (inactive) | > 100 µM (inactive) | > 100 µM (inactive) | > 100 µM (inactive) | > 100 µM (inactive) | > 100 µM (inactive) | > 100 µM (inactive) | > 100 µM (inactive) | 8.49 µM (inactive) | > 100 µM (inactive) | > 100 µM (inactive) | 29.6 µM (inactive) | > 100 µM (inactive) | > 100 µM (inactive) | > 100 µM (inactive) | > 100 µM (inactive) | > 100 µM (inactive) | > 100 µM (inactive)
Cc1c2cccc-2c(OCCO)cc2c3ccccc3n(C)c12 | 3.4 µM (inactive) | 10.7 µM (inactive) | 1.49 µM (inactive) | 3.21 µM (inactive) | 4.7 µM (inactive) | 3.09 µM (inactive) | 1.92 µM (inactive) | 1.58 µM (inactive) | 2.77 µM (inactive) | 3.73 µM (inactive) | 2.34 µM (inactive) | 4.36 µM (inactive) | 2.18 µM (inactive) | 5.58 µM (inactive) | 4.83 µM (inactive) | 3.67 µM (inactive) | 3.16 µM (inactive) | 3.73 µM (inactive) | 2.63 µM (inactive) | 3.65 µM (inactive)
O=[N+]([O-])/C(C(Cl)=C(Cl)Cl)=C(\SCc1ccccc1)N1CCCCC1 | 18 µM (inactive) | 38.4 µM (inactive) | 24.6 µM (inactive) | 28 µM (inactive) | 17.9 µM (inactive) | 15 µM (inactive) | 8.34 µM (inactive) | 40 µM (inactive) | 15.9 µM (inactive) | 37.2 µM (inactive) | 8.34 µM (inactive) | 28.4 µM (inactive) | 14.7 µM (inactive) | 19.7 µM (inactive) | 20.4 µM (inactive) | 38.5 µM (inactive) | 16.3 µM (inactive) | 23.8 µM (inactive) | 70.3 µM (inactive) | 17.5 µM (inactive)
Cc1ccc(CC2(OCCN(C)C)CCC(C(C)(C)C)CC2)cc1 (centres undefined) | 11.4 µM (inactive) | 6.87 µM (inactive) | 8.99 µM (inactive) | 2.86 µM (inactive) | 3.31 µM (inactive) | 5.13 µM (inactive) | 2.65 µM (inactive) | 11.2 µM (inactive) | 1.63 µM (inactive) | 1.91 µM (inactive) | 2.08 µM (inactive) | 2.09 µM (inactive) | 4.88 µM (inactive) | 5.28 µM (inactive) | 3.3 µM (inactive) | 4.54 µM (inactive) | 2.26 µM (inactive) | 1.79 µM (inactive) | 12.3 µM (inactive) | 2.28 µM (inactive)
O=c1oc2ccc(Cl)cc2cc1-c1cn2ccccc2n1 | 15.7 µM (inactive) | 14.8 µM (inactive) | 29.2 µM (inactive) | > 100 µM (inactive) | 13 µM (inactive) | 13.7 µM (inactive) | > 81.3 µM (inactive) | 2.14 µM (inactive) | 15 µM (inactive) | 96.8 µM (inactive) | 32.9 µM (inactive) | > 94.4 µM (inactive) | 36.6 µM (inactive) | 20.9 µM (inactive) | 57.5 µM (inactive) | 8.38 µM (inactive) | 6.64 µM (inactive) | 14.6 µM (inactive) | 28.8 µM (inactive) | > 100 µM (inactive)
O=C(CC(C(=O)c1cccs1)c1ccsc1)c1ccccc1 (centres undefined) | 26.4 µM (inactive) | > 100 µM (inactive) | > 100 µM (inactive) | 38.9 µM (inactive) | 50.7 µM (inactive) | 24 µM (inactive) | > 100 µM (inactive) | > 100 µM (inactive) | > 100 µM (inactive) | > 100 µM (inactive) | 66.1 µM (inactive) | > 100 µM (inactive) | 61.7 µM (inactive) | > 100 µM (inactive) | > 100 µM (inactive) | > 100 µM (inactive) | 38.3 µM (inactive) | 51.4 µM (inactive) | > 100 µM (inactive) | 37.5 µM (inactive)
Cc1ccc(NC(=O)c2cc(S(=O)(=O)Nc3n[nH]c(=O)[nH]3)c(SSc3cc(Cl)c(C(=O)Nc4ccc(C)cc4)cc3S(=O)(=O)Nc3n[nH]c(=O)[nH]3)cc2Cl)cc1 | > 100 µM (inactive) | > 100 µM (inactive) | > 100 µM (inactive) | > 100 µM (inactive) | 0.838 µM (active) | > 100 µM (inactive) | > 100 µM (inactive) | > 100 µM (inactive) | > 100 µM (inactive) | > 100 µM (inactive) | > 100 µM (inactive) | > 100 µM (inactive) | > 100 µM (inactive) | > 100 µM (inactive) | > 100 µM (inactive) | > 100 µM (inactive) | > 100 µM (inactive) | > 100 µM (inactive) | > 100 µM (inactive) | > 100 µM (inactive)
CSc1nc(SC)c2c(CN=[N+]=[N-])c(Br)n(Cc3ccccc3)c2n1 | > 100 µM (inactive) | > 100 µM (inactive) | > 100 µM (inactive) | > 100 µM (inactive) | 47.3 µM (inactive) | 76.7 µM (inactive) | 72.6 µM (inactive) | 24.1 µM (inactive) | 66.1 µM (inactive) | > 100 µM (inactive) | 26 µM (inactive) | – | > 100 µM (inactive) | 83.8 µM (inactive) | > 100 µM (inactive) | 36.1 µM (inactive) | 45.6 µM (inactive) | > 100 µM (inactive) | > 100 µM (inactive) | 99.3 µM (inactive)
